In patent US10626106B2, “Substituted pyrrolidine amides I” (Gruenenthal GmbH, priority 2017, dated 2020) one finds inhibition data, which are given here for seven compounds.

Some results are limits rather than exact numbers.

The first test addresses T1, Human Glucocorticoid Receptor (hGR) (Homo sapiens, UniProt P04150).
T1 construct: the resultant supernatant (=cytosol of IM9 cells) was centrifuged at 103,000 g for 60 minutes; host or cells: IM9 human lymphoblast cell line (cytosol fraction)
T1 sequence (P04150 1-777): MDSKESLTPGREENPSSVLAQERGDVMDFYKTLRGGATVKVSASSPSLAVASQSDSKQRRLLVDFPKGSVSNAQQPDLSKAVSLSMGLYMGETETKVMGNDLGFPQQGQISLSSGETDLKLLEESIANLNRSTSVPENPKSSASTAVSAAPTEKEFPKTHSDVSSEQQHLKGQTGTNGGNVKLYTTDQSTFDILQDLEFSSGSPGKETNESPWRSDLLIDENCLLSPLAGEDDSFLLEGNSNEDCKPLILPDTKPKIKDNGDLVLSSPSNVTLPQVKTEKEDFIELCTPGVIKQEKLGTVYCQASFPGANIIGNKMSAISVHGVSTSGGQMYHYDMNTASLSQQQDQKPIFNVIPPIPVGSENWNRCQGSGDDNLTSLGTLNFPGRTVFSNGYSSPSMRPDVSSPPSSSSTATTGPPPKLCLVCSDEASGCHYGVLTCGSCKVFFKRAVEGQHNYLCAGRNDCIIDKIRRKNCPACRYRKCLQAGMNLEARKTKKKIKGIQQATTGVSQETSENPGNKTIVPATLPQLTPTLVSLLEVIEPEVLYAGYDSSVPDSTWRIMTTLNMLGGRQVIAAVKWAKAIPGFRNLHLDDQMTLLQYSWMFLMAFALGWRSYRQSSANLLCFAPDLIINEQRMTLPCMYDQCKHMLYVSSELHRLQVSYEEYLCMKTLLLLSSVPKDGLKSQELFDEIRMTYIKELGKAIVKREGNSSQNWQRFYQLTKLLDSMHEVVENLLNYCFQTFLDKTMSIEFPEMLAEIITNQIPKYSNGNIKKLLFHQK
As to the kind of experiment: Human Glucocorticoid Receptor (hGR) Ligand-Binding Assay (competitive 3H-dexamethasone binding, IM9 cytosol). To be noted: compound at 1 μM; competition with 3H-dexamethasone; cytosol of IM9 cells; read-out: % inhibition hGR at 1 μM. From the text:
Human Glucocorticoid Receptor (hGR) Ligand-Binding Assay
Potential selective glucocorticoid receptor modulators of this intervention can be tested for their binding affinity at the glucocorticoid receptor using the binding assay described below.
Preferably, the glucocortitcoid receptor extracted from cytosol of IM9 cells is used for competitive radioligand binding assays to calculate the IC50 values and binding affinity (Ki value) of the compounds according to the present invention. Preferably, a fixed concentration of the radioligand 3H-dexamethasone and a range of concentrations of compounds according to the present invention (as unlabeled competitors of dexamethasone) are mixed with the extracted glucocorticoid receptor in order to measure the potency/affinity with which they compete for the binding of the radioligand. Preferably, by using competition curves the IC50 which is the concentration of competing ligand that displaces 50% of the specific binding of the radioligand is determined. Finally this IC50 value is converted to a Ki value.
The human lymphoblast cell line IM9 (ATCC, Bethesda, Md.) were cultivated in RPMI 1640 media containing 10% fetal bovine serum, penicillin (100 U/ml), streptomycin (100 μg/ml), and 2 mM L-glutamine at […] and 7% CO2 in a humidified incubator. Cells were centrifuged for 10 minutes at 1500 g and were washed in PBS and repelleted. Cell were then resuspended in homogenization buffer consisting of: 10 mM TES, 10 mM sodium molybdate, 1 mM EDTA, pH 7.4, 20 mM 2-mercaptoethanol, and 10% glycerol. Disruption of the cells was performed by nitrogen cavitation using 2×15 minutes at 600 to 750 psi nitrogen in a N2 cavitator at 0° C. The cell preparation was then centrifuged at 27,000 g for 15 minutes, and the resultant supernatant (=cytosol of IM9 cells) was centrifuged at 103,000 g for 60 minutes at 4° C. The amount of protein in the supernatant fraction was determined using a BCA assay kit and aliquots were snap frozen in a dry ice-acetone bath and stored at −70° C. Competitive binding assays were done in duplicate in homogenization buffer with a total volume of 200 μl. To this end, 1 mg of IM9 cytosol, 0.05 μCi (1.5 nM) of 3H-dexamethasone […] and compounds according to the present invention (=unlabeled competitors of dexamethasone; range of concentrations) were mixed. The reaction was stopped after incubation at 0° C. for 16 to 18 hours by the addition of 100 μl of a charcoal-dextran mixture (2% activated charcoal, 0.5% dextran in 10 mM Tris, 1 mM EDTA, pH 7.4). Another incubation step at 0° C. for 10 minutes followed before the samples were centrifuged for 5 minutes at 8200 g. 100 μl of the supernatant) was finally assayed for radioactivity by liquid scintillationspectrometry, and the IC50 values were determined graphically and were converted to Ki values.
With `Cn1cc(-n2ncc3cc(N4C(=O)C[C@H](NC(=O)c5cscn5)[C@H]4c4ccccc4)ccc32)ccc1=O` [Example 44, N-[(2R,3S)-1-[1-(1-methyl-6-oxo-3-pyridyl)indazol-5-yl]-5-oxo-2-phenyl-pyrrolidin-3-yl]thiazole-4-carboxamide], the inhibition at 1 µM lay in the range of 60 to 85%.
On the same count and under the same terms, the result for `COc1cc(Cn2ncc3cc(N4C(=O)C[C@H](NC(=O)C5CC5)C4c4ccccc4)ccc32)ccn1` (stereo in doubt) [Example 40, trans-N-(1-(1-((2-methoxypyridin-4-yl)methyl)-1H-indazol-5-yl)-5-oxo-2-phenylpyrrolidin-3-yl)cyclopropanecarboxamide] reads 40 to 60%; that for `Cc1ccccc1[C@@H]1[C@@H](NC(=O)C(C)(F)F)CC(=O)N1c1ccc2c(cnn2-c2ccc(=O)n(C)c2)c1` [Example 43, 2,2-difluoro-N-((2R,3S)-1-(1-(1-methyl-6-oxo-1,6-dihydropyridin-3-yl)-1H-indazol-5-yl)-5-oxo-2-(o-tolyl)pyrrolidin-3-yl)propanamide], more than 85%.
The same measure, in the same setting: the result for `Cn1cc(-n2ncc3cc(N4C(=O)C[C@H](NC(=O)C(C)(F)F)C4c4ccc(F)cc4F)ccc32)ccc1=O` (stereo in doubt) [Example 2, trans-2,2-difluoro-N-(5-oxo-2-(2,4-difluorophenyl)-1-(1-(1-methyl-6-oxo-1,6-dihydropyridin-3-yl)-1H-indazol-5-yl)pyrrolidin-3-yl)propanamide] reads more than 85%.

The same test, now with this note: read-out: % inhibition hGR at 1 μM.
As for `COc1cc(-n2ncc3cc(N4C(=O)C[C@H](NC(=O)C(C)(F)F)C4c4ccccc4)ccc32)ccn1` (stereo in doubt) [Example 27, trans-2,2-difluoro-N-(1-(1-(2-methoxypyridin-4-yl)-1H-indazol-5-yl)-5-oxo-2-phenylpyrrolidin-3-yl)propanamide], the inhibition at 1 µM lay in the range of 60 to 85%.
As for `CC(F)(F)C(=O)N[C@H]1CC(=O)N(c2ccc3c(cnn3-c3ncc(F)cn3)c2)C1c1ccccc1` (stereo in doubt) [Example 47, N-(trans-1-(1-(5-fluoropyrimidin-2-yl)-1H-indazol-5-yl)-5-oxo-2-phenylpyrrolidin-3-yl)-2,2-difluoropropanamide], the inhibition at 1 µM lay within 60 to 85%.
On to `Cn1cc(-n2ncc3cc(N4C(=O)C[C@H](NC(=O)C(C)(F)F)[C@H]4c4ccc(F)cc4)ccc32)ccc1=O` [Example 17, 2,2-difluoro-N-((2R,3S)-2-(4-fluorophenyl)-1-(1-(1-methyl-6-oxo-1,6-dihydropyridin-3-yl)-1H-indazol-5-yl)-5-oxopyrrolidin-3-yl)propanamide], for which the inhibition at 1 µM is more than 85%.
